{"source": "patent US20190125753A1", "about": "“COMPOUNDS AND METHODS FOR INCREASING HEMATOPOIESIS” (University of Southern California, priority 2016, published 2019)", "key": {"[1]": {"tested_on": "Axin2 and survivin (Birc5) gene expression", "test": "qPCR gene expression in bone marrow Sca-1posit cells of treated mice", "format": "in vivo, mouse", "settings": "2 mg/kg overnight, Sca-1+ population", "method": "Axin2 is a classical Wnt/catenin target genes and plays important regulatory roles in Wnt signaling. The inhibitor of apoptosis (IAP) family member survivin (Birc5) is another Wnt/catenin target gene. […] To study YH250 effects in bone marrow stem cell population gene expression, female C57/Black mice were treated with DMSO or YH250 (2 mg/kg) overnight and bone marrow Sca-1posit cells were isolated. Then, total RNA were extracted for cDNA synthesis and qPCR assay (FIG. 5A). As shown in FIGS. 5B-5C, both Axin2 and survivin gene expression were up regulated by YH250 in the Sca-1^+ population of the treated animals."}, "[2]": {"tested_on": "long-term repopulating HSC", "test": "HSC differentiation assay (LTR-HSC from treated mice co-cultured with GFP bone marrow cells)", "format": "in vivo, mouse", "settings": "2 mg/kg, 24 hours, then 2.5-3 days co-culture", "method": "DMSO or YH250 (2 mg/kg) were administrated to female C57/BL mice. (Mice were purchased from JAX stock#000664 for CD45.2 or Stock#002014 for CD45.1). 24 hours later, long-term repopulating HSC (LTR-HSC, Lin-negt/Sca-1-posit/c-kit-posit/CD34negt/CD135negt/CD48negt/CD150posit cells were purified with fluorescent flow cytometry sorting (FACS). Then, the purified cells were co-cultured with whole bone marrow cells isolated from GFP-transgenic mice (C57BL/6Tg-UBC-GFP, JAX stock#004353), which serves as supporting system in stem cell medium (Stemspan, Stemcell Technologies, Cat#9650) supplemented with SCF (stem cell factor 10 ng/ml) and TPO (thrombopoietin, 10 ng/ml). 2.5-3 days after co-culture, cells were harvested and analyzed for surface markers of CD48 and CD202b (Tie-2) (FIG. 7A)."}, "[3]": {"tested_on": "mouse bone marrow cells", "test": "CFU-S12 assay (treated cells injected to lethally irradiated mice)", "format": "in vivo", "settings": "cells treated in vitro, 12 days after injection", "from_the_text": "In CFU-S12 assay, cells treated with DMSO or YH250 were recovered from plate and injected to lethally irradiated mice (FIG. 8A), 12 days later, animals were euthanized to check spleen colony formation and spleen weight."}, "[4]": {"tested_on": "cord blood cells", "test": "Cord blood cell repopulation in NSG mice", "format": "in vivo, human", "settings": "day 57 post BMT", "from_the_text": "FIG. 11A depicts the experimental procedure."}, "[5]": {"tested_on": "cord blood CD34+ cells", "test": "Cord blood CD34+ cell culture, colony morphology at day 8", "format": "cell-based, human", "settings": "4GF medium, day 8 in culture", "method": "Cord blood CD34^+ cells were cultured in serum free medium with different growth factor combination and different concentrations of YH250. We tested three serum free mediums with either 4 growth factors (4GF, or SF6T: SCF 100 ng/ml; Flt3 100 ng/ml, IL-6 20 ng/ml, and TPO 20 ng/ml) or 6 growth factors (6GF, or SF6TG3: SCF 100 ng/ml; Flt3 100 ng/ml, IL-6 20 ng/ml, TPO 20 ng/ml, GCSF 10 ng/ml, and IL-3 10 ng/ml). YH250 was at 0.3 μM or 1 μM concentration, DMSO, the solvent for YH250, was used as control. Frozen cord blood CD34+ cells were plated into 96 wells with different medium and different growth factors and different compound concentrations. At day 8 in culture, pictures were taken to record the cell growth and colony morphology (FIG. 12A)."}, "[6]": {"tested_on": "cord blood cells", "test": "Cord blood cells incubated 24 hrs then BMT to transgenic NSG mice", "format": "in vivo, human", "settings": "10 μM 24 hrs in 4GF or 6GF medium; day 28th post BMT", "method": "To examine p300/β-catenin antagonist YH250 effects on cord blood HSC in BMT, cord blood cells were incubated with 4GF or 6GF medium and 10 μM of YH250 for 24 hrs, then cells were recovered and transplanted to irradiated NOD.Cg-Prkdc^scidIL1rg^tmlwjlTg(CMV-[…], CSF2, KITLG)1Eva, MloySzJ; JAX stock#013062) mice, these are transgenic NSG mice expressing human interleukin-3, human GM-CSF and human stem cell factor. Blood were collected at day 28th post BMT to determine engraftment."}, "[7]": {"tested_on": "LTR-HSC (LSKCD34−CD135−CD150+ cells)", "test": "BrdU incorporation in bone marrow HSPC in vivo", "parameters": "species or system mouse", "settings": "24 or 48 hrs post administration", "from_the_text": "P300/-catenin antagonists stimulate HSPC proliferation both in vitro and in vivo. In this study, 24 or 48 hrs post either DMSO or YH250 administration, BrdU was given to animals and bone marrow cells were isolated and analyzed to determine HSPC proliferation (FIG. 15A). Bone marrow cells were stained with antibodies to lineage markers (CD3, CD4, CD8, B220, CD16, Gr-1, Mac-1), antibodies to Sca-1, c-kit, CD135, CD34, CD150 and BrdU."}, "[8]": {"tested_on": "bone marrow HSPC", "test": "Multiple administration, competitive repopulation assay", "format": "in vivo, mouse", "method": "The golden standard to determine HSPC number and activity is a competitive repopulation assay. The testing cells and competitor cells are mixed and transplanted to recipients to create an environment the testing cells compete with competitor cells to repopulate the recipients' hematopoietic system. The quantitative engraftment level reflects the testing cell stem/progenitor cell number.\nIn this study, donor mice (CD45.2) were treated with YH250 or DMSO every 48 hs for 4 round, then, bone marrow cells from the treated mice were recovered and mixed with competitive cells from non-treated normal mice for BMT to lethally irradiated recipients (FIG. 16A). Blood were collected periodically from recipient mice to determine HSPC activities."}, "[9]": {"tested_on": "bone marrow HSPC", "test": "Competitive repopulation assay after 8.5Gy radiation (HSPC exhaustion)", "format": "in vivo"}, "[10]": {"tested_on": "bone marrow stem/progenitor cells", "test": "HSPC proliferation in 5-FU treated animals", "format": "in vivo, mouse", "settings": "5-FU 150 mg/kg, YH250 2 mg/kg 24 hours later, analysed one day later", "method": "p300/-catenin antagonists, such as YH250, were also tested for the ability to stimulate bone marrow stem/progenitor cell proliferation in chemotherapeutic drug-treated (e.g., 5-FU) animals. As depicted in FIG. 24A, animals were given PBS or 5-FU (150 mg/kg). 24 hours later, either DMSO or YH250 (2 mg/kg) were administrated to animals. Then, bone marrow cells were isolated one day later for FACS analysis."}}, "data": [{"smiles": "COc1cccc(CNC(=O)N2C3CN(Cc4cc(Cl)cc(Cl)c4N(C)C)C(=O)[C@H](Cc4ccc(O)cc4)N3C(=O)CN2C)c1OC", "note": "(stereo partly drawn) [YH250]", "values": [{"measurement": "Axin2 gene expression", "setting": "[1]", "value": "up regulated"}, {"measurement": "survivin gene expression", "setting": "[1]", "value": "up regulated"}, {"measurement": "CD48posit cells vs DMSO", "setting": "[2]; p=0.010", "value": "significantly less"}, {"measurement": "non-differentiated CD48negt/CD202bposit cells vs DMSO", "setting": "[2]; p=0.04", "value": "significantly more"}, {"measurement": "spleen colonies (CFU-S12)", "setting": "[3]", "value": "larger colonies on spleen"}, {"measurement": "spleen weight (CFU-S12)", "setting": "[3]", "value": "heavier spleen"}, {"measurement": "human CD34+ cells in bone marrow vs DMSO treated cells", "setting": "[4]; in vitro treated cells", "value": "more human CD34+ cells in bone marrow"}, {"measurement": "donor cell engraftment in blood", "setting": "[4]; pre-incubation in vitro 24 hours before BMT", "value": "best engraftment in blood"}, {"measurement": "colony morphology", "setting": "[5]", "value": "more close to “stem cell colony” morphology"}, {"measurement": "human CD34posit cells in blood vs DMSO treated cells", "setting": "[6]", "value": "more human CD34posit cells"}, {"measurement": "BrdU positive cells in LTR-HSC", "setting": "[7]", "value": "more BrdU positive cells"}, {"measurement": "BrdU positive cells in HSPC compartment", "setting": "[8]; LSK34negt135neg, LSK34neg135neg48negt150posit, LSK34posit135negt cells", "value": "more BrdU positive cells"}, {"measurement": "engraftment level at day 140 and 164 vs day 40 after BMT", "setting": "[8]; donors treated every 48 hs for 4 round, p<0.01, n=5/group", "value": "significantly increased"}, {"measurement": "engraftment level vs DMSO treated cells", "setting": "[8]; no statistical significance (n=5)", "value": "higher than DMSO treated cells"}, {"measurement": "engraftment level vs DMSO treated animals", "setting": "[9]; bone marrow from 8.5Gy irradiated animals", "value": "similar"}, {"measurement": "HSPC exhaustion", "setting": "[9]; one dose 24 hours post lethal dose radiation", "value": "does not exhaust HSPC"}, {"measurement": "Lin-CD48-CD150+ cell numbers vs DMSO", "setting": "[10]", "value": "significantly higher"}, {"measurement": "lineage negative cell numbers vs DMSO", "setting": "[10]", "value": "significantly higher"}]}]}
